The NIST ThermoML archive (doi:10.1016/j.jct.2016.04.014)
Numbers after ± are expanded uncertainties.

Conditions: Liquid, Vibrating tube method

CCCCCCC [heptane]
mass density [kg/m3]
Conditions | 288.15 K | 293.15 K | 298.15 K | 303.15 K | 308.15 K | 313.15 K | 318.15 K | 323.15 K
100 kPa | 688.4 ± 1.7 | 684.2 ± 1.7 | 679.9 ± 1.7 | 675.7 ± 1.7 | 671.4 ± 1.7 | 667.1 ± 1.7 | 662.7 ± 1.7 | 658.3 ± 1.7
101 kPa | 688.33 ± 0.25 | 684.11 ± 0.25 | 679.87 ± 0.25 | 675.6 ± 0.25 | 671.31 ± 0.25 | 667 ± 0.25 | – | –
1000 kPa | 689.2 ± 1.7 | 685 ± 1.7 | 680.7 ± 1.7 | 676.5 ± 1.7 | 672.2 ± 1.7 | 668 ± 1.7 | 663.6 ± 1.7 | 659.3 ± 1.7
5000 kPa | 692.5 ± 1.7 | 688.4 ± 1.7 | 684.3 ± 1.7 | 680.2 ± 1.7 | 676 ± 1.7 | 672 ± 1.7 | 667.7 ± 1.7 | 663.5 ± 1.7
10000 kPa | 696.5 ± 1.7 | 692.6 ± 1.7 | 688.6 ± 1.7 | 684.6 ± 1.7 | 680.6 ± 1.7 | 676.7 ± 1.7 | 672.6 ± 1.7 | 668.6 ± 1.7
15000 kPa | 700.4 ± 1.7 | 696.5 ± 1.7 | 692.7 ± 1.7 | 688.9 ± 1.7 | 685 ± 1.7 | 681.2 ± 1.7 | 677.3 ± 1.7 | 673.4 ± 1.7
20000 kPa | 704.1 ± 1.8 | 700.4 ± 1.8 | 696.6 ± 1.8 | 693 ± 1.8 | 689.2 ± 1.8 | 685.5 ± 1.8 | 681.8 ± 1.8 | 678 ± 1.8
25000 kPa | 707.7 ± 1.8 | 704 ± 1.8 | 700.4 ± 1.8 | 696.8 ± 1.8 | 693.2 ± 1.8 | 689.6 ± 1.8 | 686 ± 1.8 | 682.4 ± 1.8
30000 kPa | 711.1 ± 1.8 | 707.5 ± 1.8 | 704 ± 1.8 | 700.5 ± 1.8 | 697 ± 1.8 | 693.5 ± 1.8 | 690 ± 1.8 | 686.5 ± 1.8
35000 kPa | 714.3 ± 1.8 | 710.9 ± 1.8 | 707.4 ± 1.8 | 704 ± 1.8 | 700.6 ± 1.8 | 697.2 ± 1.8 | 693.8 ± 1.8 | 690.4 ± 1.8
40000 kPa | 717.4 ± 1.8 | 714 ± 1.8 | 710.7 ± 1.8 | 707.4 ± 1.8 | 704 ± 1.8 | 700.7 ± 1.8 | 697.4 ± 1.8 | –
45000 kPa | 720.3 ± 1.8 | 717 ± 1.8 | 713.8 ± 1.8 | 710.5 ± 1.8 | 707.2 ± 1.8 | 704 ± 1.8 | 700.7 ± 1.8 | –
50000 kPa | 723.1 ± 1.8 | 719.9 ± 1.8 | 716.7 ± 1.8 | 713.5 ± 1.9 | 710.3 ± 1.9 | 707.1 ± 1.9 | 703.9 ± 1.9 | –
55000 kPa | 725.8 ± 1.9 | 722.5 ± 1.9 | 719.4 ± 1.9 | 716.2 ± 1.9 | 713.1 ± 1.9 | 709.9 ± 1.9 | 706.8 ± 1.9 | –
60000 kPa | 728.2 ± 1.9 | 725.1 ± 1.9 | 721.9 ± 1.9 | 718.8 ± 1.9 | 715.7 ± 1.9 | 712.6 ± 1.9 | 709.5 ± 1.9 | –
